Where two headings read alike, the source gives them in different places.

One assay has as its target Rheb (Homo sapiens (Human), UniProt Q15382). Kind of assay: Affinity Selection Mass Spectrometry (ASMS). The assay is classed as binding. The settings on record: affinity (R3/R0) in Affinity Selection Mass Spectrometry assay. In short, it runs like this:
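Affinity selection used 2 μM compound with 60 μM Rheb and 180 μM GDP for 30 min at room temperature. After 10 kDa ultrafiltration washes, protein was denatured in MeCN and bound compound quantified by C18 UPLC with Q-TOF MS, against a no-protein control.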

Assay [1] has as its target HA-GST-Rheb (GTP-γ-S loaded) activating mTORC1 (Homo sapiens (Human), UniProt Q15382). Kind of assay: Rheb-dependent in vitro kinase assay (Rheb-IVK; LanthaScreen or Western readout). Format: biochemical.
Another assay concerns T389pS6K1 in MCF-7 cells. Kind of assay: Cell-based AlphaLISA assay, pS6K1 (Thr389). In general terms: Alpha assays give light when donor and acceptor beads are brought close together.
The test system of the next assay is S473pAkt in MCF-7 cells. Kind of assay: Cell-based AlphaLISA assay, pAkt (S473).
Assay [2] relates to mTORC1 and mTORC2 signaling in PC3 cells. Kind of assay: Long-term treatment vs. rapamycin in PC3 cells, Western blot. The assay is classed as cell-based. Particulars: replete, 2, 5, 18 or 24 hrs, NR1 30 μM, rapamycin 100 nM. On the technique in general: Immunoblotting shows a protein as a band on a membrane.
[3] abbreviates: Rheb-dependent in vitro kinase assay, read-out: IVK IC50.
The mark [4] stands for this setting: LanthaScreen variation, Terbium labeled T46p4E-BP1 specific antibody, read-out: IC50 in the Rheb-IVK.

Chain of Rheb (Q15382 1-169 limits assumed): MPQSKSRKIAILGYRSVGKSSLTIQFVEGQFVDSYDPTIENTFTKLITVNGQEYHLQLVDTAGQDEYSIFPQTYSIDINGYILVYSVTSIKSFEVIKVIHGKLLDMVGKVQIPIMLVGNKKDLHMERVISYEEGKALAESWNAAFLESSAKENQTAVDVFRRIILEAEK
Chain of HA-GST-Rheb (GTP-γ-S loaded) activating mTORC1 (Q15382 1-181): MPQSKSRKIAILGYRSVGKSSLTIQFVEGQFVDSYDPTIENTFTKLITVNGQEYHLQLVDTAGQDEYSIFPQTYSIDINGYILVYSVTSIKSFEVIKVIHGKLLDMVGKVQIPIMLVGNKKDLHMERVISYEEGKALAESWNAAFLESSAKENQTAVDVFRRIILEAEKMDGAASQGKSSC

As usually defined, the IC50 is the concentration needed to halve the response being measured. For `CN1CCN(c2cccc(NC(=O)c3cc4c(-c5cc(Cl)cc(Cl)c5)cc(Cl)cc4[nH]3)c2)CC1` [I-30, 6-chloro-4-(3,5-dichlorophenyl)-N-(3-(4-methylpiperazin-1-yl)phenyl)-1H-indole-2-carboxamide], at Rheb, the “ASMS (R3/R0)” value was “A (an affinity (R3/R0)>100%)”. Besides, the IC50 in assay [1] (setting [3]) was less than 10 µM; with T389pS6K1 in MCF-7 cells (Homo sapiens, MCF7), less than 10 µM.
As to `CN1CCC(NC(=O)c2cc3c(Sc4ccc(Cl)cc4)cc(Cl)cc3[nH]2)C1` (centres unmarked) [I-79, 6-chloro-4-(4-chlorophenylthio)-N-(1-methylpyrrolidin-3-yl)-1H-indole-2-carboxamide], the “ASMS (R3/R0)” value on Rheb is “B (an affinity (R3/R0) between 100% and 20%)”. Besides, the IC50 in assay [1] (setting [3]) is less than 10 µM; with T389pS6K1 in MCF-7 cells (Homo sapiens, MCF7), less than 10 µM.
As to `CN(C)C(=O)c1ccc(Cn2c(C(=O)O)cc3c(Br)cc(Sc4ccc(Cl)c(Cl)c4)cc32)cc1` [I-102, 4-Bromo-6-(3,4-dichlorophenylthio)-1-(4-(dimethylcarbamoyl)benzyl)-1H-indole-2-carboxylic acid], the “ASMS (R3/R0)” value at Rheb was “B (an affinity (R3/R0) between 100% and 20%)”. Moreover, the half-inhibitory concentration (IC50) was approximately 2.1 µM in assay [1] (setting [4]) and less than 10 µM in assay [1] (setting [3]). Besides, in the assay with S473pAkt in MCF-7 cells, the “inhibition of pAKT” value is “did not inhibit pAKT”.
Consider `CN1CCC(CCNC(=O)c2cc3c(Sc4ccc(Cl)cc4Cl)cc(Cl)cc3[nH]2)CC1` [I-106, 6-chloro-4-(2,4-dichlorophenylthio)-N-(2-(1-methylpiperidin-4-yl)ethyl)-1H-indole-2-carboxamide], for which the “ASMS (R3/R0)” value on Rheb is “B (an affinity (R3/R0) between 100% and 20%)”. In addition, the IC50 in assay [1] (setting [3]) is less than 10 µM; with T389pS6K1 in MCF-7 cells (Homo sapiens, MCF7), less than 10 µM.
Regarding `CN1CCC(CNC(=O)c2cc3c(Sc4ccc(Cl)cc4Cl)cc(Cl)cc3[nH]2)CC1` [I-120, 6-chloro-4-(2,4-dichlorophenylthio)-N-((1-methylpiperidin-4-yl)methyl)-1H-indole-2-carboxamide], the “ASMS (R3/R0)” value on Rheb was “B (an affinity (R3/R0) between 100% and 20%)”. The IC50 in assay [1] (setting [3]) was less than 10 µM; in the assay with T389pS6K1 in MCF-7 cells (Homo sapiens, MCF7) it was less than 10 µM.
Consider `CN1CCN(c2ccc(NC(=O)c3cc4c(Sc5ccc(Cl)cc5)cc(Cl)cc4[nH]3)cc2F)CC1` [I-141, 6-chloro-4-(4-chlorophenylthio)-N-(3-fluoro-4-(4-methylpiperazin-1-yl)phenyl)-1H-indole-2-carboxamide], for which the “ASMS (R3/R0)” value on Rheb is “B (an affinity (R3/R0) between 100% and 20%)”. The IC50 in assay [1] (setting [3]) was less than 10 µM; in the assay on T389pS6K1 in MCF-7 cells (Homo sapiens, MCF7) it was less than 10 µM.
As for `CN1CCC(CCNC(=O)c2cc3c(Sc4ccc(Cl)cc4)cc(Cl)cc3[nH]2)CC1` [I-142, 6-chloro-4-(4-chlorophenylthio)-N-(2-(1-methylpiperidin-4-yl)ethyl)-1H-indole-2-carboxamide], on Rheb, the “ASMS (R3/R0)” value is reported as “A (an affinity (R3/R0)>100%)”. Further, the IC50 in assay [1] (setting [3]) is less than 10 µM; in the assay with T389pS6K1 in MCF-7 cells (Homo sapiens, MCF7), less than 10 µM.
As to `Cn1c(CO)nc2cc(OCc3ccccc3)c(Cl)cc21` [I-425, (5-(benzyloxy)-6-chloro-1-methyl-1H-benzo[d]imidazol-2-yl)methanol], the “ASMS (R3/R0)” value at Rheb is recorded as “C (an affinity (R3/R0)<20%)”. In addition, in assay [1] (setting [3]), the IC50 was more than 3 µM.
`OCc1nc2cc(OCc3ccccc3)c(Cl)cc2n1Cc1ccc(-c2nnn[nH]2)cc1` [I-437, (1-(4-(1H-tetrazol-5-yl)benzyl)-5-(benzyloxy)-6-chloro-1H-benzo[d]imidazol-2-yl)methanol]: the “ASMS (R3/R0)” value at Rheb is recorded as “C (an affinity (R3/R0)<20%)”. For the same compound, the IC50 in assay [1] (setting [3]) is more than 3 µM.
For `OCc1nc2c(OC[C@H]3CCCC[C@@H]3O)c(Cl)c(Cl)cc2[nH]1` [I-439, 2-((5,6-dichloro-2-(hydroxymethyl)-1H-benzo[d]imidazol-4-yloxy)methyl)cyclohexanol] the same measures were “C (an affinity (R3/R0)<20%)” and 10 to 100 µM.
Consider `OCc1nc2cc(Cl)c(OCc3ccccc3)cc2n1Cc1ccc(-c2nnn[nH]2)cc1` [I-440, (1-(4-(1H-tetrazol-5-yl)benzyl)-6-(benzyloxy)-5-chloro-1H-benzo[d]imidazol-2-yl)methanol], for which the “ASMS (R3/R0)” value at Rheb is recorded as “C (an affinity (R3/R0)<20%)”. The IC50 in assay [1] (setting [3]) is 10 to 100 µM.
For `OCc1nc2cc(OCc3ccccc3F)c(Cl)cc2[nH]1` [I-481] the same measures were “C (an affinity (R3/R0)<20%)” and more than 100 µM.
Take `OCc1nc2cc(OCc3cccc(F)c3)c(Cl)cc2[nH]1` [I-484, (6-chloro-5-(3-fluorobenzyloxy)-1H-benzo[d]imidazol-2-yl)methanol]: at Rheb, the “ASMS (R3/R0)” value was “B (an affinity (R3/R0) between 100% and 20%)”. Also, in assay [1] (setting [3]), the IC50 is 100 to 300 µM.
Consider `OCc1nc2cc(OCc3ccc(Cl)cc3)c(Cl)cc2[nH]1` [I-486, (6-chloro-5-(4-chlorobenzyloxy)-1H-benzo[d]imidazol-2-yl)methanol], for which, at Rheb, the “ASMS (R3/R0)” value was “A (an affinity (R3/R0)>100%)”. The IC50 in assay [1] (setting [3]) was more than 100 µM.
The matching figures for `Clc1cc2nc(-c3ncco3)n(Cc3ccc(-c4nn[nH]n4)cc3)c2cc1Cl` [I-489, 2-(1-(4-(2H-tetrazol-5-yl)benzyl)-5,6-dichloro-1H-benzo[d]imidazol-2-yl)oxazole]: “C (an affinity (R3/R0)<20%)” and 100 to 300 µM.
The matching figures for `OCc1nc2cc(OCc3ccccc3)c(Cl)cc2[nH]1` [I-492]: “C (an affinity (R3/R0)<20%)” and more than 100 µM.
For `OCc1nc2c(OCc3ccccc3)cc(Cl)cc2[nH]1` [I-493] the same measures were “C (an affinity (R3/R0)<20%)” and more than 100 µM.
In the case of `CCC(=O)N1CCN(c2ccc(-n3c(=O)ccc4cnc5ccc(-c6cnc7ccccc7c6)cc5c43)cc2C(F)(F)F)CC1` [Torin-1, reference compound], the IC50 is approximately 0.002 µM in assay [1] (setting [4]), approximately 0.005 µM with S473pAkt in MCF-7 cells and approximately 0.001 µM with T389pS6K1 in MCF-7 cells.
In the case of `CO[C@H]1C[C@@H]2CC[C@@H](C)[C@@](O)(O2)C(=O)C(=O)N2CCCC[C@H]2C(=O)O[C@H]([C@H](C)C[C@@H]2CC[C@@H](O)[C@H](OC)C2)CC(=O)[C@H](C)/C=C(\C)[C@@H](O)[C@@H](OC)C(=O)[C@H](C)C[C@H](C)/C=C/C=C/C=C/1C` [rapamycin, reference compound], the “inhibition of the Rheb-IVK” value in assay [1] (LanthaScreen variation, no FKBP12 present) is “did not inhibit the Rheb-IVK”. Besides, the “mTORC1 versus mTORC2 signaling with chronic exposure (T389pS6K1, S473pAkt)” value in assay [2] is “inhibits mTORC2 signaling with chronic exposure”.

These data come from patent US11339144B2 (Navitor Pharmaceuticals, Inc., priority 2017, dated 2022).
